These results are taken from US5744468A (Lin; Tong-Ho, priority 1996, dated 1998).

Like-named read-outs stand apart in the source and are kept apart here.

Experiment [1] deals with dopamine D3 receptor mRNA. The following applies: daily doses clozapine 30 mg/kg, sulpiride 100 mg/kg; male Wistar rats; long term; cited from earlier work.
Experiment [2] deals with intraocular pressure (IOP) in rabbits. The following applies: 50 μl.
Method: New Zealand albino rabbits of either sex were used in the study. A 20% hypertonic saline solution was infused at the speed of 1 ml per min for 10 minutes through the marginal ear vein with an infusion pump.
Then the IOP of both eyes were measured with a Tono-Pen XL Tonometer (Mentor, Norwell, Mass.) at 30 minute and 10 minute intervals before the experiment. At the time of commencement, as well as at 10, 20, 40, 60, and 80 rain intervals measurements were taken, Then measurements were repeated at every 30 minute intervals.

Turning to `CCN1CCCC1CNC(=O)c1cc(S(N)(=O)=O)ccc1OC` (stereo not drawn) [Sulpiride], the “mRNA levels in the dopamine D3 receptor” value in experiment [1] is “large increase”. Besides, the “effect on IOP recovery” value in experiment [2] (0.5% drop solution, instilled in eye) is given as “didn't show a significant ability in decreasing lOP”; in experiment [2] (20% drop solution, listed as sulpiride), “able to decrease the intraocular pressure (IOP)”.
